The source of these data is patent US20250130239A1, “PROTEIN DEGRADER” (University of Dundee, priority 2021, published 2025).

The target in one data set is T1, VHL (VCB protein) (Homo sapiens, UniProt P40337).
T1 construct: N-terminally Hiss-tagged VHL (54-213); His6 (N, cleaved yes); made in house; host or cells: E. coli
Nature of the data set: Fluorescence polarization competitive binding assay, binary binding. Conditions: compound alone; displacement of HIF-1a peptide probe; read-out: binary affinity to VHL Kd. On the procedure:
Protein Expression and Purification. […] The complex was further purified by anion exchange followed by gel filtration chromatography.
Fluorescence Polarization Binding Assay. […] All components were dissolved from stock solutions using 100 mM Bis-Tris propane, 100 mM NaCl, 1 mM DTT, pH 7.0, to yield a final assay volume of 15 μL. DMSO was added as appropriate to ensure a final concentration of 2% v/v. […] Percentage displacement values were obtained by normalization of controls were plotted against Log[Compound]. IC50 values were determined for each titration using nonlinear regression analysis with Prism (v. 9.1.0, GraphPad). […] Cooperativity values (a) for each PROTAC were calculated using the ratio: α=binary Kd (−bromodomain)/ternary Kd (+bromodomain).
For orientation: Polarisation of emitted light reports the rotation of a fluorescent probe.

A further data set has as its system MV-4-11 cells. The data set can be described thus: CellTiter-Glo cell viability assay, MV-4-11. It counts as cell-based, human. To be noted: up to 10 μM; 24 h. On the procedure:
(§1) Cell Viability Assay. MV-4-11 cells were plated at a density of 2×10^4 cell per well of a 96 well white-bottom plate, and left to grow overnight in 50 μl of IMDM (Invitrogen, arlsebad, CA, USA) supplemented with 10% (v/v) Fetal bovine serum (FBS) (Thermo Fisher, Waltham, MA, USA) and 1% (v/v) penicillin/streptomycin (pen/strep) (#15140122, Thermo Fisher, Waltham, MA, USA) at 37° C., 5% CO2, and 95% humidity. […] These cells were then left to incubate at 37° C., 5% CO2, and 95% humidity for one day prior to undergoing spectrophotometric analysis. 22RV1 cells were plated at a density of 2×10^4 cell per well of a 96 well white-bottom plate, and left to grow overnight in 100 μL of RPMI-1640 (Invitrogen, Carlsebad, CA, USA) supplemented with 10% (v/v) fetal bovine serum (FBS) (Thermo Fisher, Waltham, MA, USA) and 1% (v/v) penicillin/streptomycin (pen/strep) (#15140122, Thermo Fisher, Waltham, MA, USA) at 37° C., 5% CO2, and 95% humidity. […] Plates were subjected to 2 mins on an orbital shaker to encourage lysis and left for a further 5 mins to reach peak luminescence. Luminescence was then recorded on a BMG Labtech PHERAstar luminescence plate reader with recommended settings. Data extracted from this analysis was analysed with Graphpad Prism (v. 8.2.0, GraphPad) and normalized to the DMSO vehicle control. […]
In general terms: In ATP-based viability assays light output follows the ATP content of the culture.

In another data set the test system is 22RV1 cells. The data set can be described thus: CellTiter-Glo cell viability assay, 22RV1. It counts as cell-based, human. To be noted: up to 10 μM; 48 h. Here is the method: as §1
Another data set concerns the target T2, BromoTag-Brd2 (Homo sapiens, UniProt O60885+P40337, L387A).
T2 construct: comprising residues 368-440 of human Brd4; Brd2 (endogenous protein, fusion partner in the same polypeptide); eGFP-P2A (upstream marker in the knock-in cassette) (N, cleaved yes); expressed in transfected cells; host or cells: HEK293, heterozygous CRISPR knock-in at the endogenous BRD2 locus
Nature of the data set: Recovery (washout) assay. In kind it is cell-based. Here is the method:
Recovery Assay. A recovery assay was performed using 200 nM AGB1 over a 72 h period. This was performed in the genotype verified heterozygous BromoTag-Brd2 HEK293 cell line. Heterozygous BromoTag-Brd2 HEK293 cells were plated at a density of 5×10^5 cells per well of a six-well plate a day before initiating the recovery assay. On the experiment day, cells were washed with PBS before fresh DMEM was applied to contain either DMSO or AGB1 200 nM. During treatment, cells were kept at 37° C., 5% CO2, and 95% humidity. After three hours, the recovery and vehicle control condition cells were rewashed with PBS before fresh DMEM was applied absent 200 nM AGB1 or DMSO. As for the positive control condition, they were left with 200 nM AGB1 for the remainder of the treatment time.
Western Blotting. All cells were harvested on ice with RIPA lysis, and extraction buffer (ThermoFisher Scientific, 89901) supplemented with protease inhibitor cocktail (Merck, 11697498001) and Benzonase® Nuclease (Sigma, E1014) before being store at −20° C. prior to use. Total protein quantity was determined using the BCA protein assay (#23225, Pierce, Rockford, Illinois). Protein concentration was determined using the BCA assay (ThermoFisher Scientific, 23225). Samples were then prepared and loaded onto NuPAGE™ 4-12% Bis-Tris Midi gels (ThermoFisher Scientific, WG1403A), followed by the transfer of the proteins onto nitrocellulose membranes (EMD Millipore). The membranes were blocked for 1 h prior to incubation with the primary antibodies using 5% Milk TBST. Membranes were probed for Brd2 (Abcam, Ab139690, 1:1000), Brd3 (Abcam, Ab50818, 1:4000), Brd4 (Abcam, Ab128874, 1:1000) or our polyclonal Brd4^BD2 L387A antibody. […] All western blots were analysed for band intensities using Image Lab from Bio-Rad (LI-COR, Biosciences). The data extracted from these blots were then plotted and analysed using Prism (v. 8.2.0, GraphPad).

Usually Kd stands for a measure of binding affinity in units of concentration. Turning to `CC[C@@H](C(=O)OCCOCCOCCOCC(=O)N[C@H](C(=O)N1C[C@H](O)C[C@H]1C(=O)NCc1ccc(-c2scnc2C)cc1)C(C)(C)C)[C@@H]1N=C(c2ccc(Cl)cc2)c2c(sc(C)c2C)-n2c(C)nnc21` (single isomer, unassigned) [AGB1 (46)], on VHL (VCB protein), the dissociation constant (Kd) came to 125 nM. The cytotoxicity entry in the data set with MV-4-11 cells and in the data set on 22RV1 cells was “lack of cytotoxicity” throughout. Further, the “time after washout at which BromoTag-Brd2 protein levels recover” value on BromoTag-Brd2 (200 nM for 3 h, then washout) amounted to 24 h. In addition, the “BromoTag-Brd2 level after 3 h treatment” value at BromoTag-Brd2 (200 nM, 3 h) is “complete depletion”. Further, the “on-target degradation without washout” value at BromoTag-Brd2 (200 nM, no washout) was “complete and durable on-target degradation for up to 72 h”.
